Results published in patent US20070037833A1, “Compositions and methods for inhibiting neurodegeneration” (priority 2005, published 2007).

How the values were obtained:
[1] = system: motor neurons; test: Cholesterol content of pure motor neuron cultures (Amplex Red Cholesterol Assay); assay type: cell-based, rat; settings: after 30 minutes of treatment
Experimental: Two hundred thousand motor neurons were plated in wells of a 96 well dish and after 24 hrs. treated with βMCD or vehicle. Thirty minutes later cholesterol content was determined using the Amplex® Red Cholesterol Assay kit (Molecular Probes) according to the manufacturers instructions. All determinations were made in quintuplicate and normalized to protein content (determined using Protein Assay kit (Bio-Rad)).
Finally to begin to determine the biological relevance of the lipid raft signaling complex, we asked if their disruption with cholesterol depleting agents would affect the capacity of BDNF to confer excitotoxic sensitivity upon motor neurons. Pure motor neurons were grown in the presence of CT-1 but in the absence of BDNF for 24 hours at which point the cholesterol depleting agent, β-methylcyclodextin (βMCD) or vehicle was added to the cultures. Thirty minutes later, BDNF or vehicle was added to the culture and 3 hours later the excitoticity assay was performed (FIG. 6b). We determined the amount of cholesterol in our pure motor neuron cultures after 30 minutes of βMCD treatment and found an ˜25% reduction in comparison with vehicle treatment (βMCD v. vehicle; 404±31 μg/μg protein versus 550±16 μg/μg protein, n=5 samples, t-test, p<0.001). […]

[2] = system: pure motor neurons grown in CT-1; test: BDNF-conferred excitotoxic sensitivity of pure motor neurons after cholesterol depletion; assay type: cell-based; settings: for excitotoxic cell death: acute BMCD or vehicle followed by BDNF or vehicle, then kainate
Experimental: Finally to begin to determine the biological relevance of the lipid raft signaling complex, we asked if their disruption with cholesterol depleting agents would affect the capacity of BDNF to confer excitotoxic sensitivity upon motor neurons. Pure motor neurons were grown in the presence of CT-1 but in the absence of BDNF for 24 hours at which point the cholesterol depleting agent, β-methylcyclodextin (βMCD) or vehicle was added to the cultures. Thirty minutes later, BDNF or vehicle was added to the culture and 3 hours later the excitoticity assay was performed (FIG. 6b). We determined the amount of cholesterol in our pure motor neuron cultures after 30 minutes of βMCD treatment and found an ˜25% reduction in comparison with vehicle treatment (βMCD v. vehicle; 404±31 μg/μg protein versus 550±16 μg/μg protein, n=5 samples, t-test, p<0.001). In terms of cell death, a statistically significant difference between experimental groups was identified by ANOVA (F(5,42)=32.797; P<0.001) and a post hoc analysis (Scheffé with level of significance set at P<0.05) indicated excitotoxic death only occurred in the (+)BDNF/(−)βMCD treatment group (# of motor neurons exposed to vehicle or kainate; 57±7 versus 40±4).

[3] = system: ALS patients; settings: intrathecal 25 μg/day or 150 μg/day versus vehicle, 18 months; cited from earlier work

Molecule	reduction of cholesterol in comparison with vehicle [1] [%]	# of motor neurons ([2]; (+)BDNF/(+)βMCD group, exposed to kainate)	# of motor neurons ([2]; (+)BDNF/(+)βMCD group, exposed to vehicle)	# of motor neurons ([2]; (−)BDNF/(+)βMCD group, exposed to kainate)	# of motor neurons ([2]; (−)BDNF/(+)βMCD group, exposed to vehicle)	toxicity to motor neurons ([2]; BMCD alone)	excitotoxic cell death [2]	# of motor neurons ([2]; (+)BDNF/(−)βMCD group, exposed to kainate)	# of motor neurons ([2]; (+)BDNF/(−)βMCD group, exposed to vehicle)	survival rate (survival free of ventilatory support) [3]
β-methylcyclodextin [βMCD]	~25	51±5	58±4	60±5	60±3	non-toxic	did not occur			
BDNF: brain-derived neurotrophic factor, activates the receptor tyrosine kinase TrkB (protein, UniProt P23560 19-247, looked up) Neurotrophic factor BDNF …: APMKEANIRGQGGLAYPGVRTHGTLESVNGPKAGSRGLTSLADTFEHVIEELLDEDQKVRPNEENNKDADLYTSRVMLSSQVPLEPPLLFLLEEYKNYLDAANMSMRVRRHSDPARRGELSVCDSISEWVTAADKKTAVDMSGGTVTVLEKVPVSKGQLKQYFYETKCNPMGYTKEGCRGIDKRHWNSQCRTTQSYVRALTMDSKKRIGWRFIRIDTSCVCTLTIKRGR							Excitotoxic cell death occurred	40±4	57±7	lower than in the placebo group
